Our source for the IC50 values is BindingDB's records for doi:10.1016/0960-894X(95)00215-F (n/a, 1995).

The target of the assay is Phospholipase A2 group IIA. Briefly: Concentration required for in vitro inhibitory activity against human type II phospholipase A2.

The compound `CCOC(=O)[C@@]1(Cc2ccccc2)S[C@H](F)C(C)(C)C1=O` returned an IC50 of 676 nM.

Compound `CCOC(=O)[C@@]1(Cc2ccccc2)S[C@@H](F)C(C)(C)C1=O` showed a 50% inhibitory concentration (IC50) of 4090 nM.
